# Counter-ions that a name gives are not always drawn.
# Biological target: α7 nAChR (Rattus norvegicus, UniProt Q05941)
# Test: [3H]-MLA competition binding assay in rat brain membranes
# Conditions: not given
# Excerpt: Materials and Methods for identifying binding constants: […]
# Sequence of α7 nAChR (Q05941 23-502): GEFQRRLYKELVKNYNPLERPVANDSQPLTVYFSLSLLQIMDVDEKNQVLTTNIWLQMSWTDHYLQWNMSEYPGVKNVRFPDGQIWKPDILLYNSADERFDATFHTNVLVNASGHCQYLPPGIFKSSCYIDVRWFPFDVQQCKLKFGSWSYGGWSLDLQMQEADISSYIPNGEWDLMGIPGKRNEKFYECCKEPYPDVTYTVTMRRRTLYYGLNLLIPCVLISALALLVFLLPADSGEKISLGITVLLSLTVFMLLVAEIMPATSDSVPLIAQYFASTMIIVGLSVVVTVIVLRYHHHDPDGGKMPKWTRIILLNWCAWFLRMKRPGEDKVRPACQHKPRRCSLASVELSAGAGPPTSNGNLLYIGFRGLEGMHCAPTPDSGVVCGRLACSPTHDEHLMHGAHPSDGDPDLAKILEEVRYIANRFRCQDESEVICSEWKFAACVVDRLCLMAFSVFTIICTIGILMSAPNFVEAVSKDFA
row,Structure (SMILES),Ki
1,"O=C(N[C@H]1CN2CCC1CC2)c1ccc(Sc2cccc(Cl)c2)cc1 [Example 17, N-[(3R)-1-azabicyclo[2.2.2]oct-3-yl]-4-(3-chlorophenylsulfanyl)benzamide]",0.17 µM
2,"O=C(N[C@H]1CN2CCC1CC2)c1ccc(Oc2ccc(Cl)cc2)cc1 [Example 13, N-[(3R)-1-azabicyclo[2.2.2]oct-3-yl]-4-(4-chlorophenoxy)-benzamide]",1.24 µM
3,"COc1ccc(Oc2ccc(C(=O)N[C@H]3CN4CCC3CC4)cc2)cc1 [Example 16, N-[(3R)-1-azabicyclo[2.2.2]oct-3-yl]-4-(4-methoxyphenoxy)-benzamide]",0.414 µM
4,"CC(=O)Nc1ccc(Oc2ccc(C(=O)N[C@H]3CN4CCC3CC4)cc2)cc1 [Example 2, N-[(3R)-1-azabicyclo[2.2.2]oct-3-yl]-4-(4-acetamidophenoxy)benzamide]",0.27 µM
5,"O=C(N[C@H]1CN2CCC1CC2)c1ccc(C(=O)c2ccccc2)cc1 [Example 7, N-[(3R)-1-azabicyclo[2.2.2]oct-3-yl]-4-benzoylbenzamide]",1.58 µM
6,"O=C(N[C@H]1CN2CCC1CC2)c1ccc(Oc2cccc(Cl)c2)cc1 [Example 12, N-[(3R)-1-azabicyclo[2.2.2]oct-3-yl]-4-(3-chlorophenoxy)-benzamide]",1.59 µM
7,"O=C(N[C@H]1CN2CCC1CC2)c1ccc(Oc2ccc(F)cc2)cc1 [Example 8, N-[(3R)-1-azabicyclo[2.2.2]oct-3-yl]-4-(4-fluorophenoxy)benzamide]",0.91 µM
8,"O=C(N[C@H]1CN2CCC1CC2)c1ccc(Oc2ccc(O)cc2)cc1 [Example 1, N-[(3R)-1-azabicyclo[2.2.2]oct-3-yl]-4-(4-hydroxyphenoxy)benzamide]",0.278 µM
9,"O=C(N[C@H]1CN2CCC1CC2)c1ccc(Oc2ccccc2)cc1 [Example 3, N-[(3R)-1-azabicyclo[2.2.2]oct-3-yl]-4-phenoxybenzamide]",0.847 µM

# Same assay, conditions: read-out: Ki
row,Structure (SMILES),Ki
1,"COc1cccc(Oc2ccc(C(=O)N[C@H]3CN4CCC3CC4)cc2)c1 [Example 15, N-[(3R)-1-azabicyclo[2.2.2]oct-3-yl]-4-(3-methoxyphenoxy)-benzamide]",0.835 µM
2,"CC1C(NC(=O)c2ccc(Oc3ccccc3)cc2)C2CCN1CC2 (centres unmarked) [Example 23, N-(2-methyl-1-azabicyclo[2.2.2]oct-3-yl)-4-phenoxybenzamide Fumarate]",1.66 to 1.98 µM

# From patent US6479510B2, “Quinuclidine-substituted aryl compounds for treatment of disease” (Pharmacia & Upjohn Company, priority 2000, dated 2002)
